≈ marks a conversion by molar mass, not a printed value. Calls of active or inactive are those of the source. The calls are words filed in the database; no cut-off is given here.

Assay [1] has as its system Saccharomyces cerevisiae. Put plainly: Antifungal activity against Saccharomyces cerevisiae ATCC 7754 after 2 days by broth dilution method. Type of assay: functional. Particulars: ATCC 7754, 48 h. (In general: In broth dilution the organism is exposed to a series of concentrations in liquid medium.)
Assay [2] relates to Malassezia furfur. Put plainly: Antifungal activity against Pityrosporum ovale ATCC 14521 after 3 days by broth dilution method. To be noted: ATCC 14521, 72 h. Type of assay: functional.
The test system of assay [3] is Candida albicans. Briefly: Antifungal activity against Candida albicans ATCC 18804 after 2 days by broth dilution method. Type of assay: functional. To be noted: ATCC 18804, 48 h.
For another assay, the system named is Bacillus subtilis. Put plainly: Antimicrobial activity against Bacillus subtilis ATCC 9372 up to 800 ug/mL after 2 days by broth dilution method. Type of assay: functional. To be noted: ATCC 9372, 48 h.
Assay [4] relates to Corynebacterium ammoniagenes. Briefly: Antimicrobial activity against Brevibacterium ammoniagenes ATCC 6872 up to 800 ug/mL after 2 days by broth dilution method. Type of assay: functional, organism-based.
The next assay deals with Staphylococcus aureus. Briefly: Antimicrobial activity against Staphylococcus aureus ATCC 12598 up to 800 ug/mL after 2 days by broth dilution method. The assay is classed as functional, organism-based.
Another assay has as its system Streptococcus mutans. Briefly: Antimicrobial activity against Streptococcus mutans ATCC 25175 up to 800 ug/mL after 2 days by broth dilution method. The assay is classed as functional, organism-based.
Another assay relates to Cutibacterium acnes. Put plainly: Antimicrobial activity against Propionibacterium acnes ATCC 11827 up to 800 ug/mL after 2 days by broth dilution method. Type of assay: functional, organism-based.
The test system of another assay is Escherichia coli. Briefly: Antimicrobial activity against Escherichia coli ATCC 9637 up to 800 ug/mL after 2 days by broth dilution method. The assay is classed as functional, organism-based.
For the next assay, the system named is Pseudomonas aeruginosa. Briefly: Antimicrobial activity against Pseudomonas aeruginosa ATCC 10145 up to 800 ug/mL after 2 days by broth dilution method. Type of assay: functional, organism-based.
Another assay deals with Klebsiella aerogenes. Briefly: Antimicrobial activity against Enterobacter aerogenes ATCC 13048 up to 800 ug/mL after 2 days by broth dilution method. Type of assay: functional, organism-based.
In a further assay the test system is Penicillium chrysogenum. Briefly: Antimicrobial activity against Penicillium chrysogenum ATCC 10106 up to 800 ug/mL after 5 days by broth dilution method. Type of assay: functional, organism-based.
In assay [5] the test system is Candida albicans. Briefly: Antifungal activity against Candida albicans ATCC 18804 at 800 ug/mL after 2 days by broth dilution method. Type of assay: functional, organism-based.
Assay [6] relates to Malassezia furfur. Briefly: Antifungal activity against Pityrosporum ovale ATCC 14521 at 800 ug/mL after 3 days by broth dilution method. The assay is classed as functional, organism-based.
The test system of assay [7] is Saccharomyces cerevisiae. Briefly: Antifungal activity against Saccharomyces cerevisiae ATCC 7754 at 1600 ug/mL after 2 days by broth dilution method. Type of assay: functional, organism-based.
Assay [8] relates to Saccharomyces cerevisiae. Briefly: Antifungal activity against Saccharomyces cerevisiae ATCC 7754 at 800 ug/mL after 2 days by broth dilution method. Type of assay: functional. Particulars: ATCC 7754, 48 h.

A word on the MIC: it is the lowest concentration found to suppress growth. For `COc1ccc(O)c(C(C)(C)C)c1.COc1ccc(O)cc1C(C)(C)C` [BUTYLATED HYDROXYANISOLE], the MIC in the assay with Saccharomyces cerevisiae [1] and with Malassezia furfur [2] was 200 µg/mL throughout.

On to `C=CCc1ccccc1` [ALLYLBENZENE], for which the minimal inhibitory concentration (MIC) in the assay with Saccharomyces cerevisiae [1] is 400 µg/mL (≈ 3380 µM); in the assay on Candida albicans [3], 400 µg/mL (≈ 3380 µM); with Malassezia furfur [2] it was above 800 µg/mL.

`C=CCc1ccc(O)c(OC)c1` [EUGENOL]: the MIC was 800 µg/mL (≈ 4870 µM) in the assay on Saccharomyces cerevisiae [1], 800 µg/mL (≈ 4870 µM) against Candida albicans [3] and 200 µg/mL (≈ 1220 µM) with Malassezia furfur [2].

Take `COc1ccc(/C=C/C(=O)O)cc1` [4-METHOXYCINNAMIC ACID]: the values for the MIC in the assay on Saccharomyces cerevisiae [1], with Candida albicans [3] and against Malassezia furfur [2] were 100 µg/mL (≈ 561 µM), 200 µg/mL (≈ 1120 µM) and above 800 µg/mL, respectively.

Turning to `CC(C)[C@H]1OC(=O)C=C2C13O[C@@H]3[C@H]1OC(=O)[C@@]3(C)[C@@H](O)CC[C@@]2(C)[C@@H]13` (some centres not stated) [NAGILACTONE E], the MIC against Saccharomyces cerevisiae [1] stood at 100 µg/mL (≈ 287 µM); with Candida albicans [3] it was 800 µg/mL (≈ 2300 µM); in the assay on Malassezia furfur [2], 50 µg/mL (≈ 144 µM); in the assay with Bacillus subtilis, 50 µg/mL (≈ 144 µM). Also, the result (in [4]; in the assay with Staphylococcus aureus; with Streptococcus mutans; with Cutibacterium acnes; with Escherichia coli; with Pseudomonas aeruginosa) was inactive. The result in the assay on Klebsiella aerogenes and in the assay on Penicillium chrysogenum was inactive.

Take `O=C(O)c1ccc(O)cc1` [PARABEN]: the minimum inhibitory concentration (MIC) in the assay on Saccharomyces cerevisiae [1] is 200 µg/mL (≈ 1450 µM); with Malassezia furfur [2], 100 µg/mL (≈ 724 µM).

In the case of `CC(C)c1oc(=O)cc2c1[C@@H](O)[C@H]1OC(=O)[C@@]3(C)[C@@H](O)[C@H]4O[C@H]4[C@@]2(C)[C@@H]13` [NAGILACTONE C], the result (in the assay on Candida albicans [5]; with Malassezia furfur [6]; in assay [4]; in the assay on Staphylococcus aureus; in the assay on Streptococcus mutans; with Cutibacterium acnes) was inactive. The result in the assay on Escherichia coli, in the assay with Pseudomonas aeruginosa, with Klebsiella aerogenes, in the assay with Penicillium chrysogenum and in the assay on Saccharomyces cerevisiae [7] was inactive. For the same compound, the minimal inhibitory concentration (MIC) in the assay with Saccharomyces cerevisiae [1] and against Malassezia furfur [2] was above 1600 µg/mL throughout.

For `C/C=C\c1ccc(O)c(OC)c1` [ISOEUGENOL], the MIC in the assay with Saccharomyces cerevisiae [1] amounted to 400 µg/mL (≈ 2440 µM); with Candida albicans [3] it was 400 µg/mL (≈ 2440 µM); with Malassezia furfur [2], 200 µg/mL (≈ 1220 µM).

Turning to `C/C=C/c1ccc2c(c1)OCO2` [ISOSAFROLE], the results for the MIC against Saccharomyces cerevisiae [1], with Candida albicans [3] and in the assay with Malassezia furfur [2] were 200 µg/mL (≈ 1230 µM), 100 µg/mL (≈ 617 µM) and 100 µg/mL (≈ 617 µM), respectively.

Turning to `C/C=C/c1cc(OC)c(OC)cc1OC` [TRANS-ASARONE], the minimum inhibitory concentration (MIC) came out at 800 µg/mL (≈ 3840 µM) against Saccharomyces cerevisiae [1], 800 µg/mL (≈ 3840 µM) in the assay on Candida albicans [3] and 200 µg/mL (≈ 960 µM) in the assay with Malassezia furfur [2].

As to `C=CCc1ccc(OC)c(OC)c1` [METHYLEUGENOL], the values for the MIC with Saccharomyces cerevisiae [1], against Candida albicans [3] and with Malassezia furfur [2] were 800 µg/mL (≈ 4490 µM), 800 µg/mL (≈ 4490 µM) and 200 µg/mL (≈ 1120 µM), respectively.

Consider `C/C=C/c1ccccc1`, for which the MIC is 400 µg/mL (≈ 3380 µM) with Saccharomyces cerevisiae [1], 400 µg/mL (≈ 3380 µM) with Candida albicans [3] and above 800 µg/mL in the assay with Malassezia furfur [2].

On to `C=CCc1ccc2c(c1)OCO2` [SAFROLE], for which the minimum inhibitory concentration (MIC) against Saccharomyces cerevisiae [1], in the assay with Candida albicans [3] and in the assay with Malassezia furfur [2] was 200 µg/mL (≈ 1230 µM) in each case.

Turning to `CC(C)[C@H]1OC(=O)C=C2C1=C[C@H]1OC(=O)[C@@]3(C)C[C@H](O)C[C@@]2(C)[C@@H]13`, the MIC against Saccharomyces cerevisiae [8] and in the assay on Saccharomyces cerevisiae [1] was 800 µg/mL (≈ 2410 µM) throughout. In addition, the result (in assay [4]; in the assay on Staphylococcus aureus; in the assay on Streptococcus mutans; in the assay with Cutibacterium acnes; with Escherichia coli; in the assay with Pseudomonas aeruginosa) was inactive. Also, the result with Klebsiella aerogenes and in the assay on Penicillium chrysogenum was inactive.

For `C/C=C/c1ccc(OC)cc1` [ANETHOLE], the MIC in the assay on Saccharomyces cerevisiae [1], with Candida albicans [3] and with Malassezia furfur [2] was 200 µg/mL (≈ 1350 µM) in each case.

For the compound `C/C=C/c1ccc(OC)c(OC)c1` [METHYLISOEUGENOL], the MIC turned out to be 400 µg/mL (≈ 2240 µM) in the assay on Saccharomyces cerevisiae [1], 400 µg/mL (≈ 2240 µM) in the assay with Candida albicans [3] and 200 µg/mL (≈ 1120 µM) in the assay on Malassezia furfur [2].

Values taken from ChEMBL document CHEMBL1147339, “Combination effects of antifungal nagilactones against Candida albicans and two other fungi with phenylpropanoids” (1993).
